Assays:
[1] = test system: crushed sciatic nerve; test: Sciatic nerve crush injury, sciatic function index (SFI) by walking track analysis; format: in vivo, mice
Protocol: There are also possible effects of the 4-AP on nerve injuries suffered more acutely. Acute nerve injury is both common and difficult to treat. One type of acute peripheral nerve injury with a murine model available for study is the sciatic nerve crush injury model in mice and rats. In this model, the nerve is crushed with a variable amount of force which creates a measurable functional deficit in gait. This deficit is measured using a sciatic function index which is an accepted and validated measure of the functional effects of the injury.
(§1) Mouse Model of Peripheral Nerve Injury. All procedures were approved by the University of Rochester Committee on Animal Resources. Female 10-week-old C57BL6 mice were performed sciatic nerve crush injury on the left hindlimb and the sham-surgery on the other one. All extensive surgery procedures were as described previously (Elfar et al., The Journal of Bone and Joint Surgery, 90: 1644-1653 (2008)). rhEPO was administered immediately at a dose of 5000 U/kg (Juul, Acta Paediatrica 91:36-42 (2002), Bianchi et al., PNAS 101:823-828 (2004), and Elfar et al., The Journal of Bone and Joint Surgery, 90:1644-1653 (2008)).
Sciatic Function Index (SFI) Determined by Walking Track Analysis. The assessment of motor function recovery was performed by calculating the sciatic function index (SFI). Walking track analysis was performed according to a published model that quantifies sciatic nerve function performance (de Medinaceli et al., Exp. Neurol. 77:634-643 (1982)). The operating procedure is extensively described previously (Elfar et al., The Journal of Bone and Joint Surgery, 90:1644-1653 (2008)). In brief, individual mouse footprints were obtained by painting each foot and walked down the 50 cm path in a narrow corridor lined with paper. Gaits were measured from the resulting footprints to get (1) toe spread (TS) (first through fifth toes), (2) print length (PL), and (3) intermediate toe spread (ITS) (second, third, and fourth toes) of both limbs (Gladman et al., The Journal of Neuroscience, 32:563-571 (2012)). All three measurements from the three most clearly inked foot prints per run were taken from the normal (N) and experimental (E) sides, and the SFI were calculated using the following formula: SFI=−38.3((EPL−NPL)/NPL)+109.5((ETS−NTS)/NTS)+13.3((EIT−NIT)/NIT)−8.8 where E is the injured limb and N is the control limb.

[2] = test system: crushed sciatic nerve; test: Immunofluorescent staining of myelinated (P0+) and total (neurofilament+) axons in crushed sciatic nerve; format: in vivo, mice; details: systemic EPO directly after crush; 7 days post-injury
Source text: FIGS. 14A, 14B, and 14C are images and a graph showing EPO supported preservation of myelin within crushed nerves. FIG. 14A is an image of the immunofluorescent staining of destroyed myelin sheath at the injured site 7 days post-injury. FIG. 14B is an image showing immunofluorescent staining of myelinated axons and total axons in the cross sections of sciatic nerves 7 days post-injury. Representative images of the cross sections of the sciatic nerves (a, d: healthy nerve; b, c, e, f: crushed nerve). FIG. 14C is a graph showing the ratio of the number of myelinated axon to total axons of crushed sciatic nerves with or without EPO administration. (unpaired t-test, n=3, three animals for each set, p<0.01).
as §1
To work towards the underlying action by which EPO works, it was noticed that the speed of recovery in injured mice was too rapid to be attributable to axonal regeneration. 4-aminopyridine (4-AP) is a potassium channel blocker which enables demyelinated axons to conduct impulses, and thus can be used to identify injuries in which whether there exist anatomically intact but demyelinated axons. Mice receiving a sciatic nerve crush injury, performed poorly in SFI tests 3 days after injury. […] The effect of 4-AP raises the possibility that the benefits of EPO may be due to preservation of myelin and/or improvement of remyelination. […] In untreated mice only 25% of axons (neurofilament+) were associated with myelin (P0+) whereas EPO treatment raised this ratio to 60%.

[3] = test system: Schwann cell-DRG neuron co-cultures; test: DRG neuron and Schwann cell myelinating co-cultures, MBP+ myelin quantification; format: cell-based
Protocol: Primary Schwann Cell Culture.
Dorsal Root Ganglia (DRG) Neuron Cell Culture. DRG neurons were isolated from E18 embryos of Sprague-Dawley rats and 5,000 neurons were seeded in laminin/poly-L-lysine coated 48 well plates. Primary DRG neurons were maintained in Neurobasal media supplemented with B27 containing antioxidants, 50 ng/mL NGF, and 1 μM Ara-C. 1 μM Ara-C treatment was performed three times for two days each time following two days of fresh medium without Ara-C to eliminate fibroblasts. After two weeks, DRG neurons with extensive axons were seeded with Schwann cells for myelination tests (Syed et al., The Journal of Neuroscience 30:6122-6131 (2010)).
DRG Neuron and Schwann Cell Myelinating Co-cultures. Thirty thousand (30,000) Schwann cells were plated onto the DRG neurons per well. Co-cultures were maintained in differentiation media (DMEM/F12 (1:1), 50 ng/mL NGF, 1× N2 supplement) for a week. Co-cultures were then changed to myelinating medium (MEM, 50 ng/mL NGF, 50 μg/mL ascorbic acid, 10% FBS) for two weeks. Medium was changed every two days (Syed et al., The Journal of Neuroscience 30:6122-6131 (2010)). EPO was added three times at day 6 of differentiating stage, day 1, and day 3 of myelinating stage.
Myelin Quantification. To quantify the extent of myelination in co-cultures, the total number of MBP+ myelin was counted within the whole culture well and normalized by the total cell number (DAPI+).
To determine whether EPO enhances Schwann cell-mediated myelination directly we exposed Schwann cell-DRG neuron co-cultures to various concentrations of EPO (1, 10, 100 unit/mL of EPO). In FIG. 15A, every single short thread-like MBP+ staining cells representing a myelin formed by a single myelinating Schwann cell wrapped around the axon.

[4] = test system: glutathione S-transferase and gamma-glutamylcysteine synthetase; details: 100 U/mL EPO, isolated Schwann cell cultures
Source text: (unpaired t-test, n=4, p<0.01) FIG. 15D is a gel image of immunoblotting of glutathione S-transferase and gamma-glutamylcysteine synthetase levels in Schwann cells with 100 U/mL EPO treatment.

[5] = test system: compressed nerves; test: Nerve conduction velocity of chronically compressed nerve (sleeve around the nerve); format: in vivo, mice; details: 4-AP IP single bolus; 7, 9, 12 weeks of compression
Protocol: FIGS. 1A, 1B and 1C show graphs of nerve conduction velocity at 7 weeks (FIG. 1A), 9 weeks (FIG. 1B) and 12 weeks (FIG. 1C) of compression and treatment with high dose 4-AP (HD), low dose of 4-AP (LD), and saline (Sal). 4-AP was administered IP in a single dose as a bolus.
The concept that 4-AP may have a role in the treatment of compressed nerves emanates from data showing that the conduction velocity of compressed nerves can respond strongly to pharmacologic treatment with this agent. […] Therefore, 4-AP may be used locally or systemically for the treatment of chronic compression injury.

[6] = intravenous and oral gelatin-based capsule treatments; cited from earlier work

Molecule: EPO: Recombinant human erythropoietin, 30.4-kDa hematopoietic glycoprotein
- functional improvements in SFI over control groups ([1]; local EPO in fibrin glue vehicle at the site of crush injury, 0.5 U): 15%
- SFI function, higher than in untreated animals ([1]; single subcutaneous EPO 5000 U/kg directly after injury, 7 days after injury): 20%
- SFI more restored compared to control group ([1]; single subcutaneous EPO 5000 U/kg directly after injury, day 14 after injury): 15%
- hind limb / foot appearance ([1]; systemic EPO 5000 U/kg, seven days post-surgery): close-to-normal appearance
- number of axons [2]: without significantly altering the number of axons
- number of myelinated fibers versus untreated [2]: almost tripled
- ratio of myelinated (P0+) axons to total axons (neurofilament+) [2]: 60%
- myelin formation under NO stress ([3]; 100 μM SNAP with 100 U/mL EPO): notably recovered myelin formation
- total number of MBP+ myelin ([3]; 1, 10, 100 unit/mL of EPO): increased the total number of the MBP+ myelin in co-culture and was found to be dose-dependent
- glutathione S-transferase and gamma-glutamylcysteine synthetase levels [4]: up-regulated

Molecule: Nc1ccncc1 [4-AP, 4-aminopyridine]
- conduction velocity of compressed nerve (ratio to contralateral uninjured nerve) [5]: strong effects of 4-AP administration was seen
- sciatic function index (gait) ([1]; 4-AP administered systemically on day 3 or day 5 after crush injury): large improvement in the function of the animals gait
- SFI ([1]; intraperitoneal 100 μg 4-AP, 3 days after injury): significant transient improvement in SFI
- plasma half-life [6]: 3 to 4 h
- time to maximum plasma concentration [6]: about 1 hour

Molecule: CC(=O)NC(C(=O)O)C(C)(C)SN=O (racemic) [SNAP, S-Nitroso-N-acetyl-DL-penicillamine, reference compound]
- baseline myelination ([3]; 100 μM SNAP): robust decrease in baseline myelination
- cell death ([3]; 100 μM SNAP): significant cell death was not observed

— patent US11654110B2, “Composition and methods for the treatment of peripheral nerve injury” (UNIVERSITY OF ROCHESTER, priority 2013, dated 2023)
